Data as given in paper PMC5030359, “Cathelicidin Antimicrobial Peptides with Reduced Activation of Toll-Like Receptor Signaling Have Potent Bactericidal Activity against Colistin-Resistant Bacteria” (mBio, 2016).
In brackets after ≈: the same amount, converted by molar mass. Read-outs that look alike come from different tables or passages of the source. Ends that are not written are not given here. Peptide text beside a SMILES is read from it.

Tests used:
TLR9 = TLR9 signaling: IL-6 ELISA in BEAS-2B cells treated with CpG DNA ODN2006; format: cell-based, human; settings: ODN2006 0.5 nM, peptide 2 µM, control cells = 100%, mean (SD) of minimum three assays
Experimental: (§1) Eight cathelicidins produced by eight mammals were selected for an initial examination (Fig. 1A). […] However, the number of charged residues and the lengths of the disordered residues differed (Fig. 1B). The peptides were added to BEAS-2B cells, a human lung epithelial cell line that expresses multiple TLRs and can release proinflammatory cytokines in response to their activation and the enhancement of cytokine release by LL-37 ([15]). BEAS-2B cells treated with the TLR3 agonist poly(I⋅C) and 2 µM LL-37 increased interleukin 6 (IL-6) production by threefold. All of the nonhuman cathelicidins tested had lower TLR3 signaling compared to LL-37 (Fig. 1B). The lack of TLR3 signaling by the nonhuman cathelicidins was due to the inability to use the formyl peptide receptor-like receptor 1 to endocytose the double-stranded RNA (dsRNA)−LL-37 complex and deliver the poly(I⋅C) to TLR3 in endosomes ([17]) (see Fig. S1 in the supplemental material). All of the nonhuman cathelicidins also had reduced activation of TLR9 compared to LL-37 (Fig. 1B).
(§2) FIG 1 Cathelicidins from animals have distinct abilities to act on Toll-like receptor signaling. (A) A phylogenetic relationship of cathelicidins from mammals. The figure is derived from results of Zanetti et al. (12). (B) Names, lengths, and sequences of cathelicidin peptides and their ability to affect Toll-like receptor signaling. The peptide lengths are shown in the numbers of amino acids (AAs). The residues predicted to form an α-helix are underlined with an arrow. The basic, acidic, and aromatic residues are colored blue, red, and green, respectively. TLR signaling was assessed by the amount of IL-6 cytokine produced in BEAS-2B cells. IL-6 levels were quantified using enzyme-linked immunosorbent assay (ELISA), and the level of IL-6 in the control cells is normalized to 100%. The peptides were added to the cells at a final concentration of 2 μM. Each result is the mean of a minimum of three independent assays, and the standard deviations (SD) are shown in parentheses.
(§3) The concentration of IL-6 secreted into the cell medium was quantified using the OptEIA kit (BD Biosciences, San Jose, CA). A typical assay used 1 × 10^4 BEAS-2B cells/well grown for 24 h in flat-bottom 96-well plates. Poly(I⋅C) was added to a final concentration of 0.13 µg/ml for 24 h. ODN2006 was added to 0.5 nM. Lipopolysaccharides were used at 0.5 µg/ml. All data shown are the means and ranges of 1 standard error for a minimum of three independent samples. Data sets were compared using the Student t test calculated with GraphPad Prism 5 software.

TLR3 = TLR3 signaling: IL-6 ELISA in BEAS-2B cells treated with poly(I·C); format: cell-based, human; settings: for % IL-6 produced compared to controls (SD) TLR3: poly(I·C) […], peptide 2 µM, ELISA, control cells = 100%, mean (SD) of minimum three assays
Experimental: as §1, §2, §3

TLR4 = TLR4 signaling: IL-6 ELISA in BEAS-2B cells treated with LPS; format: cell-based, human; settings: for % IL-6 produced compared to controls (SD) TLR4: BEAS-2B cells, LPS 0.5 µg/ml, peptide 2 µM, ELISA, control cells = 100%, mean (SD) of minimum three assays
Text: as §2
LL-37 at 2 µM final concentration reduced IL-6 production to approximately half that of the untreated cells (Fig. 1B).
as §3

[1] = strains with MIC of 16 µg/ml or less / strains tested
[2] = broth microdilution, CAMHB, at least three independent assays

Experimental for 19 Gram-negative strains: (A) Sequences of the cathelicidins, the numbers of bacterial strains killed, and hRBC lysis by the cathelicidins. […] The bacterial species tested are Klebsiella pneumoniae (K. p.), Serratia marcescens (S. m.), Enterobacter cloacae (E. cl.), Escherichia coli (E. c.), and Pseudomonas aeruginosa (P. a.). MICs were determined by the microdilution assay. […] The results are the median values of at least three independent assays.
We tested a panel of cathelicidins for inhibiting growth of 19 Gram-negative strains from the family Enterobacteriaceae and the nonfermentative bacteria. The species tested were Enterobacter cloacae ([2]), Escherichia coli ([5]), Klebsiella pneumoniae ([4]), Pseudomonas aeruginosa ([4]), and Serratia marcescens ([4]). All of the strains selected have been characterized for their antibiotic resistance profiles.
(§4) Antimicrobial activity was determined using the broth microdilution method based on the guidelines of the Clinical and Laboratory Standards Institute (CLSI) ([39]), using cation-adjusted Mueller-Hinton broth (CAMHB) as the testing medium. Reference Gram-positive and Gram-negative bacteria were tested, including both enteric and Pseudomonas aeruginosa strains. Each MIC was determined in at least three independent assays.
Experimental for Enterobacter cloacae: (§5) The bacterial species tested are Klebsiella pneumoniae (K. p.), Serratia marcescens (S. m.), Enterobacter cloacae (E. cl.), Escherichia coli (E. c.), and Pseudomonas aeruginosa (P. a.). MICs were determined by the microdilution assay. […] The results are the median values of at least three independent assays.
as §4
Experimental for Escherichia coli: as §5, §4
Experimental for Klebsiella pneumoniae: as §5, §4
Experimental for Pseudomonas aeruginosa: as §5, §4
Experimental for Serratia marcescens: as §5, §4

“GLRKKFRKTRKRIQKLGRKIGKTGRKVWKAWREYGQIPYPCRI [CAP-11]” was tested, and the “# strains inhibited at 16 µg/ml peptide S. m.” value (Serratia marcescens; [1]) was 1/3, the “% IL-6 produced compared to controls (SD) TLR9” value (“% IL-6 produced … (SD) TLR9” below) (TLR9) was 79(10) % and the “# strains inhibited at 16 µg/ml peptide K. p.” value (Klebsiella pneumoniae; [1]) was 4/4. The “# strains inhibited at 16 µg/ml peptide E. cl.” value (Enterobacter cloacae; [1]) was 2/2, the “# strains inhibited at 16 µg/ml peptide P. a.” value (Pseudomonas aeruginosa) was 4/4 and the “# strains inhibited at 16 µg/ml peptide E. c.” value (Escherichia coli) was 5/6. For the same molecule, the “No. of strains inhibited at 16 µg/ml/total no. of strains” value (“No. of strains inhibited” for short) (19 Gram-negative strains; 19 Gram-negative strains, MIC of 16 µg/ml or less) was 16, the “% IL-6 produced compared to controls (SD) TLR3” value (shortened to “% IL-6 produced … (SD) TLR3”) (TLR3) was 148(8) % and the “% IL-6 produced compared to controls (SD) TLR4” value (shortened to “% IL-6 produced … (SD) TLR4”) (TLR4) was 9(4) %.
For `CC[C@H](C)[C@H](NC(=O)[C@H](CCCCN)NC(=O)[C@H](CCC(=O)O)NC(=O)[C@H](CCCCN)NC(=O)[C@H](CO)NC(=O)[C@H](CCCCN)NC(=O)[C@H](CCCNC(=N)N)NC(=O)[C@H](Cc1ccccc1)NC(=O)[C@H](Cc1ccccc1)NC(=O)[C@H](CC(=O)O)NC(=O)CNC(=O)[C@H](CC(C)C)NC(=O)[C@@H](N)CC(C)C)C(=O)NCC(=O)N[C@@H](CCCCN)C(=O)N[C@@H](CCC(=O)O)C(=O)N[C@@H](Cc1ccccc1)C(=O)N[C@@H](CCCCN)C(=O)N[C@@H](CCCNC(=N)N)C(=O)N[C@H](C(=O)N[C@H](C(=O)N[C@@H](CCC(N)=O)C(=O)N[C@@H](CCCNC(=N)N)C(=O)N[C@H](C(=O)N[C@@H](CCCCN)C(=O)N[C@@H](CC(=O)O)C(=O)N[C@@H](Cc1ccccc1)C(=O)N[C@@H](CC(C)C)C(=O)N[C@@H](CCCNC(=N)N)C(=O)N[C@@H](CC(N)=O)C(=O)N[C@@H](CC(C)C)C(=O)N[C@H](C(=O)N1CCC[C@H]1C(=O)N[C@@H](CCCNC(=N)N)C(=O)N[C@H](C(=O)N[C@@H](CCC(=O)O)C(=O)N[C@@H](CO)C(=O)O)[C@@H](C)O)C(C)C)[C@@H](C)CC)C(C)C)[C@@H](C)CC` [LL-37], the “# strains inhibited at 16 µg/ml peptide S. m.” value (Serratia marcescens) was 0/3, the “MIC S. marcescens 4075” value (Serratia marcescens; [2]) was over 32 mg/L and the “MIC S. marcescens 4101” value (Serratia marcescens; [2]) was over 32 mg/L. For the same molecule, the “MIC S. marcescens 4104” value (Serratia marcescens; [2]) was over 32 mg/L, the “MIC S. marcescens 7553” value (Serratia marcescens; [2]) was over 32 mg/L and the “% IL-6 produced … (SD) TLR9” value (TLR9) was 175(15) %. For the same molecule, the “# strains inhibited at 16 µg/ml peptide K. p.” value (Klebsiella pneumoniae) was 0/4, the “MIC K. pneumoniae 4110” value (Klebsiella pneumoniae; [2]) was over 32 mg/L and the “MIC K. pneumoniae ATCC 700603” value (Klebsiella pneumoniae; [2]) was over 32 mg/L. The “MIC K. pneumoniae C2” value (Klebsiella pneumoniae; [2]) was over 32 mg/L, the “MIC K. pneumoniae OC8893” value (Klebsiella pneumoniae; [2]) was over 32 mg/L and the “# strains inhibited at 16 µg/ml peptide E. cl.” value (Enterobacter cloacae) was 0/2. For the same molecule, the “MIC E. cloacae 4080” value (Enterobacter cloacae; [2]) was 32 mg/L (≈ 7.12 µM), the “MIC E. cloacae 4092” value (Enterobacter cloacae; [2]) was over 32 mg/L and the “# strains inhibited at 16 µg/ml peptide P. a.” value (Pseudomonas aeruginosa) was 0/4. For the same molecule, the “MIC P. aeruginosa 4083” value (Pseudomonas aeruginosa; [2]) was 32 mg/L (≈ 7.12 µM), the “MIC P. aeruginosa ATCC 27853” value (Pseudomonas aeruginosa; [2]) was over 32 mg/L and the “MIC P. aeruginosa PAO1” value (Pseudomonas aeruginosa; [2]) was 32 mg/L (≈ 7.12 µM). For the same molecule, the “MIC P. aeruginosa PAO1 ΔOprD” value (Pseudomonas aeruginosa; [2]) was 32 mg/L (≈ 7.12 µM), the “# strains inhibited at 16 µg/ml peptide E. c.” value (Escherichia coli) was 0/6 and the “MIC E. coli ATCC 25922” value (Escherichia coli; [2]) was 32 mg/L (≈ 7.12 µM). The “MIC E. coli ATCC 35218” value (Escherichia coli; [2]) was 32 mg/L (≈ 7.12 µM), the “MIC E. coli IU0342” value (Escherichia coli; [2]) was 32 mg/L (≈ 7.12 µM) and the “MIC E. coli J53 AzideR” value (Escherichia coli; [2]) was over 32 mg/L. For the same molecule, the “MIC E. coli MC4100” value (Escherichia coli; [2]) was over 32 mg/L, the “No. of strains inhibited” value (19 Gram-negative strains) was 0/19 and the “MIC for any/all of the 19 bacterial strains” value (19 Gram-negative strains; statement over all 19 Gram-negative strains) was “at least 32 µg/ml”. For the same molecule, the “% IL-6 produced … (SD) TLR3” value (TLR3) was 389(16) %, the “increase of IL-6 production” value (TLR3; poly(I·C), 2 µM peptide) was “threefold” and the “% IL-6 produced … (SD) TLR4” value (TLR4) was 55(3) %. The “IL-6 production relative to untreated cells” value (TLR4; LPS-induced TLR4 signaling, 2 µM peptide) was “approximately half”.
For CRAMP, the “# strains inhibited at 16 µg/ml peptide S. m.” value (Serratia marcescens; [1]) was 0/3, the “% IL-6 produced … (SD) TLR9” value (TLR9) was 41(7) % and the “# strains inhibited at 16 µg/ml peptide K. p.” value (Klebsiella pneumoniae; [1]) was 0/4. For the same molecule, the “# strains inhibited at 16 µg/ml peptide E. cl.” value (Enterobacter cloacae; [1]) was 1/2, the “# strains inhibited at 16 µg/ml peptide P. a.” value (Pseudomonas aeruginosa) was 0/4 and the “# strains inhibited at 16 µg/ml peptide E. c.” value (Escherichia coli) was 1/6. For the same molecule, the “No. of strains inhibited” value (19 Gram-negative strains) was 2/19, the “% IL-6 produced … (SD) TLR3” value (TLR3) was 57(10) % and the “% IL-6 produced … (SD) TLR4” value (TLR4) was 41(7) %.
With `CC[C@H](C)[C@H](NC(=O)[C@H](CCCCN)NC(=O)[C@H](CCC(=O)O)NC(=O)[C@H](CCCCN)NC(=O)[C@@H](NC(=O)[C@H](CCCCN)NC(=O)[C@H](CCCNC(=N)N)NC(=O)[C@H](Cc1ccccc1)NC(=O)[C@H](Cc1ccccc1)NC(=O)[C@H](CC(N)=O)NC(=O)CNC(=O)[C@H](CC(C)C)NC(=O)[C@@H](N)CCCNC(=N)N)C(C)C)C(=O)NCC(=O)NCC(=O)NCC(=O)N[C@@H](CC(C)C)C(=O)N[C@@H](CCCCN)C(=O)N[C@@H](CCCCN)C(=O)N[C@H](C(=O)NCC(=O)N[C@@H](CCC(N)=O)C(=O)N[C@@H](CCCCN)C(=O)N[C@H](C(=O)N[C@@H](CCCCN)C(=O)N[C@@H](CC(=O)O)C(=O)N[C@@H](Cc1ccccc1)C(=O)N[C@@H](CC(C)C)C(=O)NCC(=O)N[C@@H](CC(N)=O)C(=O)N[C@@H](CC(C)C)C(=O)N[C@H](C(=O)N1CCC[C@H]1C(=O)N[C@@H](CCCNC(=N)N)C(=O)N[C@H](C(=O)N[C@@H](C)C(=O)N[C@@H](CO)C(=O)O)[C@@H](C)O)C(C)C)[C@@H](C)CC)C(C)C` [RL-37] (H-RLGNFFRKVKEKIGGGLKKVGQKIKDFLGNLVPRTAS-OH; N-terminus and C-terminus assumed) the “# strains inhibited at 16 µg/ml peptide S. m.” value (Serratia marcescens; [1]) was 0/3, the “% IL-6 produced … (SD) TLR9” value (TLR9) was 93(19) % and the “# strains inhibited at 16 µg/ml peptide K. p.” value (Klebsiella pneumoniae; [1]) was 3/4. For the same molecule, the “# strains inhibited at 16 µg/ml peptide E. cl.” value (Enterobacter cloacae; [1]) was 1/2, the “# strains inhibited at 16 µg/ml peptide P. a.” value (Pseudomonas aeruginosa) was 1/4 and the “# strains inhibited at 16 µg/ml peptide E. c.” value (Escherichia coli) was 2/6. The “No. of strains inhibited” value (19 Gram-negative strains) was 7/19, the “% IL-6 produced … (SD) TLR3” value (TLR3) was 102(18) % and the “% IL-6 produced … (SD) TLR4” value (TLR4) was 50(5) %.
For CAP-18, the “# strains inhibited at 16 µg/ml peptide S. m.” value (Serratia marcescens; [1]) was 0/3, the “% IL-6 produced … (SD) TLR9” value (TLR9) was 121(23) % and the “# strains inhibited at 16 µg/ml peptide K. p.” value (Klebsiella pneumoniae; [1]) was 4/4. For the same molecule, the “# strains inhibited at 16 µg/ml peptide E. cl.” value (Enterobacter cloacae; [1]) was 1/2, the “# strains inhibited at 16 µg/ml peptide P. a.” value (Pseudomonas aeruginosa) was 3/4 and the “# strains inhibited at 16 µg/ml peptide E. c.” value (Escherichia coli) was 3/6. For the same molecule, the “No. of strains inhibited” value (19 Gram-negative strains) was 11/19, the “% IL-6 produced … (SD) TLR3” value (TLR3) was 234(30) % and the “% IL-6 produced … (SD) TLR4” value (TLR4) was 42(13) %.
